Experimental data published in patent publication US11547738B2, “Compositions and methods for treating fibrosis” (Cedars-Sinai Medical Center, priority 2014, dated 2023).
Entries after “also recorded” stand apart in the source; their conditions may differ.

Legend:
[1] = test system: caerulein-induced CP mice; test: caerulein-induced chronic pancreatitis (CP) mouse model; type: in vivo; conditions: for pancreas fibrosis (relative pancreas weight, H&E, Trichrome, α-SMA, Collagen1A1) / alternative activation of pancreatic macrophages (CD206 expression, flow cytometry): established CP; for pancreas fibrosis (relative pancreas weight, H&E, Trichrome, α-SMA, Collagen1A1): FIG. 6A-6E; for alternative activation of pancreatic macrophages (CD206 expression, flow cytometry): FIG. 6F
Description: As indicated herein, agents that inhibit IL-4/IL-13 receptor function such as CRSM53567 will have benefit in several fibrosis and cancer diseases. In this design a commonly used model to cause chronic pancreatitis in rodents was created. In this model, the animal is given the cholecystokinin analogue, Caerulein, as a set of 6 intraperitoneal injections over a day repeated 3 times a week for 4 weeks. […] CD206 is a marker of the type II macrophage while MHCII is highly expressed on type I macrophage.
Pancreatitis model and treatment: AP was induced with caerulein injection in mice as previously described (Xue, J., et al. Aryl hydrocarbon receptor regulates pancreatic IL-22 production and protects mice from acute pancreatitis. Gastroenterology 143, 1670-1680 (2012); Xue, J. & Habtezion, A. Carbon monoxide-based therapy ameliorates acute pancreatitis via TLR4 inhibition. J. Clin. Invest. 124, 437-447 (2014)). CP was induced by repetitive caerulein injections (Lerch, M. M. & Gorelick, F. S. Models of acute and chronic pancreatitis. Gastroenterology 144, 1180-1193 (2013); Treiber, M. et al. Myeloid, but not pancreatic, RelA/p65 is required for fibrosis in a mouse model of chronic pancreatitis. Gastroenterology 141, e1471-e1477 (2011)). In brief, mice were given six hourly intraperitoneal (i.p.) injections of 50-μg kg^−1 body weight caerulein (Sigma-Aldrich) 3 days per week, for a total of 4 weeks. Mice were then killed and analyzed 3 days after the last caerulein injection. For blocking peptide study all mice were given caerulein injection 3 days per week for a total of 4 weeks as above, and 2 weeks following start of the caerulein injection mice were either given vehicle control (PBS) or IL-4/IL-13-blocking peptide ([…], 100 μl daily for 5 days per week×2 weeks) until being killed 4 weeks and 3 days later as above.
Histology and immunofluorescence: Mice were killed by CO2 inhalation, and then their pancreata were rapidly removed. Pancreas pieces were immediately fixed in 10% formalin or frozen in Tissue-Tek OCT compound. Fixed tissues were sectioned and used for haemotoxylin and eosin and Trichrome staining (performed in the Histo-Tec Laboratory). Frozen tissues were also sectioned for immunofluorescence staining with indicated antibodies and analyzed with confocal microscopy.
Antibodies and flow cytometry: All antibodies used for flow cytometry were purchased from Biolegend, unless indicated. For surface staining, murine cells were stained with the following antibodies: APC-CD45.2 (109814, 1:200), PE/Cy7-CD4 (100528, 1:300), Percp/Cy5.5-CD11b (101228, 1:200), BV421-F4/80 (123137, 1:200), APC/Cy7-CD11C (117324, 1:200), PE-IL-411.a (144803 1:100), AF488-CD206 (141710, 1:100), AF700-MHCII (107622, 1:300), PB-Ly6C (128014, 1:200), PE/Cy7-Ly-6G (127617, 1:300), PE-FcεRIα (134307, 1:200), AF488-ckit (105815, 1:200), APC-eFluor780-CD45.1 (47-0453-82, eBioscience, 1:200) and PE-Siglec-F (562068, BD Biosciences, 1:200). Human cells were stained with PE/Cy7-CD14 (301814,1:100), AF488-CD206 (321114, 1:50) and APC-CD68 (333810, 1:100). For intracellular cytokine staining, cells were activated with phorbol myristate acetate (50 ng ml^−1) and ionomycin (1 μg ml^−1), in the presence of brefeldin A (10 μg ml^−1, eBioscience) for 4h at 37° C. before staining. The cells were then fixed and permeabilized using the eBioscience kit following the manufacturer's guidelines. APC-IL10 (554468, 1:100) and isotype control (556924, 1:100) from BD Biosciences were used for intracellular staining. For intracellular TNFα staining, cells were incubated with or without lipopolysaccharide (100 ngml-1, InvivoGen) in the presence of brefeldin A before surface-staining. PE-TNFα (554419, 1:200) and isotype control (554685, 1:200) from BD Biosciences were used.
Quantitative RT-PCR: Th pancreas or cells were lysed with Trizol reagent (Invitrogen) for total RNA preparation according to the manufacturer's instructions. […]

[2] = test system: mouse IL-4/IL-13-induced M2 polarization; test: in vitro titration assay of IL-4/IL-13-induced M2 polarization; type: cell-based; conditions: at 1 μM
Description: Antibodies and flow cytometry: All antibodies used for flow cytometry were purchased from Biolegend, unless indicated. For surface staining, murine cells were stained with the following antibodies: APC-CD45.2 (109814, 1:200), PE/Cy7-CD4 (100528, 1:300), Percp/Cy5.5-CD11b (101228, 1:200), BV421-F4/80 (123137, 1:200), APC/Cy7-CD11C (117324, 1:200), PE-IL-411.a (144803 1:100), AF488-CD206 (141710, 1:100), AF700-MHCII (107622, 1:300), PB-Ly6C (128014, 1:200), PE/Cy7-Ly-6G (127617, 1:300), PE-FcεRIα (134307, 1:200), AF488-ckit (105815, 1:200), APC-eFluor780-CD45.1 (47-0453-82, eBioscience, 1:200) and PE-Siglec-F (562068, BD Biosciences, 1:200). Human cells were stained with PE/Cy7-CD14 (301814,1:100), AF488-CD206 (321114, 1:50) and APC-CD68 (333810, 1:100). […]
Cell preparation and in vitro cultures: Pancreatic leukocytes were isolated using collagenase digestion method described previously for flow cytometry analysis (Xue, J., et al. Aryl hydrocarbon receptor regulates pancreatic IL-22 production and protects mice from acute pancreatitis. Gastroenterology 143, 1670-1680 (2012)). […] Isolated PSCs were ready for use after the second passage. […] On day 6, human macrophages are ready for use (Vijayan, D. Isolation and differentiation of monocytes-macrophages from human blood. Methods Mol. Biol. 844, 183-187 (2012)). […]

human macrophages = test: M2 polarization of human macrophages by hPSC conditioned medium; type: cell-based; conditions: hPSC_CM pretreated with 1 μM, 24 h; FIG. 6G
Method: IL-4/IL-13-blocking peptide (IL4/13BP i.p., 50 μg per mouse, 5 days per week) was administrated to mice 2 weeks after starting CP induction and mice were killed as previous after 4 weeks of caerulein injections. […] (unpaired two-tailed Student's t-test). […] Scale bar, 200 μm. […] Scale bar: 50 μm. FIG. 6D and FIG. 6E show RT-PCR analysis of α-SMA and Col1α1 (Collagen1A1) gene expression in the pancreas of indicated mice. Means±s.e.m. (unpaired two-tailed Student's t-test). […] Means±s.e.m. (unpaired two-tailed Student's t-test). In FIG. 6G human macrophages as above were cultured with control medium (Con), conditioned medium from hPSCs (hPSC_CM) or hPSC_CM pretreated with 1 μM IL4/13BP (hPSC_CM+BP) for 24h. Expression of CD206 (% CD206^+ macrophages) was analysed using flow cytometry.
Antibodies and flow cytometry: All antibodies used for flow cytometry were purchased from Biolegend, unless indicated. […]
Cell preparation and in vitro cultures: Pancreatic leukocytes were isolated using collagenase digestion method described previously for flow cytometry analysis (Xue, J., et al. Aryl hydrocarbon receptor regulates pancreatic IL-22 production and protects mice from acute pancreatitis. Gastroenterology 143, 1670-1680 (2012)). […] Isolated PSCs were ready for use after the second passage. […]

E0771 tumors = test: syngeneic E0771 tumor model with radiation therapy; type: in vivo, C57BL/6 mice; conditions: for response to radiation therapy (tumor volume): 50 μg in 100 μL PBS daily injection combined with RT 16 Gy, versus RT alone, FIG. 8A
Method: Syngeneic E0771 tumors were implanted in the lower mammary gland of C57BL/6 mice and allowed to grow to approximately […]. Mice were then enrolled on study (n=5/group) and treated with either PBS (Control), IL4/13 blocking peptide CSRM53567 (50 μg in 100 μL PBS, daily injection), radiation therapy (RT) alone (16 Gy) or combination of CSRM53567 peptide and RT. Mice were measured at the indicated time points with digital calipers and the resulting volume was calculated. ** p<0.01. […] There were fewer CD4+ T cells and more CD8+ T cells as a percentage of the CD45+ leukocytes in the tumors that received radiation therapy and the IL4/13 blocking peptide compared to radiation alone. […] The cytokines and CD45+ cells were all harvested at end point which is about two weeks post-RT.

[3] = chronic pancreatitis mouse model, preliminary results, FIG. 1
[4] = i.p. 50 μg per mouse, 5 days per week, started 2 weeks after starting CP induction
[5] = i.p. 50 μg per mouse, 5 days per week, started 2 weeks after starting CP induction, listed as IL-4/13-blocking peptide
[6] = RT plus peptide compared to radiation alone, about two weeks post-RT

Substance: TYR-CYS-ASP-ASP-PHE-VAL-GLY-SER-PHE-ASP-CYS-TYR (YCDDFVGSFDCY) [CSRM53567]
- macrophages in the tissue (FACS) ([1]; chronic pancreatitis mouse model, caerulein 3 times a week for 4 weeks, preliminary results, FIG. 1B): decreases; also recorded: reduces
- fibrosis [1, 3]: decreased fibrosis; also recorded: reduces
- tissue volume / pancreas shrinkage [1, 3]: increase; also recorded: preventing pancreas shrinkage
- pancreas fibrosis (relative pancreas weight, H&E, Trichrome, α-SMA, Collagen1A1) [1, 4]: limited pancreas fibrosis
- pancreas fibrosis (relative pancreas weight, H&E, Trichrome, α-SMA, Collagen1A1) [1, 5]: ameliorated
- alternative activation of pancreatic macrophages (CD206 expression, flow cytometry) [1, 4]: blockade of alternative activation
- alternative activation of pancreatic macrophages (CD206 expression, flow cytometry) [1, 5]: decreased
- established CP ([1]; i.p. 50 μg per mouse, 5 days per week, started 2 weeks after starting CP induction, FIG. 6): ameliorates established CP
- mouse IL-4/IL-13-induced M2 polarization and CD206 expression [2]: significantly decreased
- hPSC-mediated M2 polarization of human macrophages (% CD206+ macrophages) (human macrophages): capable of inhibiting
- response to radiation therapy (tumor volume) (E0771 tumors): enhances response to radiation therapy
- response to radiation therapy (tumor volume) (E0771 tumors; listed as IL-4/IL-13 blocking peptide): enhances the response to radiation therapy
- number of CD8+ T cells post radiation therapy (E0771 tumors; FIG. 8B): enhances the number of CD8+ T cells
- CD4+ T cells as a percentage of the CD45+ leukocytes in the tumors (E0771 tumors; [6]): fewer
- CD8+ T cells as a percentage of the CD45+ leukocytes in the tumors (E0771 tumors; [6]): more
- absolute number of CD45+ leukocytes (E0771 tumors; [6]): remained roughly the same
